The text below walks through data of US11453669B2, “Polycyclic pyridone derivative” (Shionogi & Co., Ltd., priority 2018, dated 2022).

Structures are written as SMILES.

T1 sequence (Q14524 whole entry): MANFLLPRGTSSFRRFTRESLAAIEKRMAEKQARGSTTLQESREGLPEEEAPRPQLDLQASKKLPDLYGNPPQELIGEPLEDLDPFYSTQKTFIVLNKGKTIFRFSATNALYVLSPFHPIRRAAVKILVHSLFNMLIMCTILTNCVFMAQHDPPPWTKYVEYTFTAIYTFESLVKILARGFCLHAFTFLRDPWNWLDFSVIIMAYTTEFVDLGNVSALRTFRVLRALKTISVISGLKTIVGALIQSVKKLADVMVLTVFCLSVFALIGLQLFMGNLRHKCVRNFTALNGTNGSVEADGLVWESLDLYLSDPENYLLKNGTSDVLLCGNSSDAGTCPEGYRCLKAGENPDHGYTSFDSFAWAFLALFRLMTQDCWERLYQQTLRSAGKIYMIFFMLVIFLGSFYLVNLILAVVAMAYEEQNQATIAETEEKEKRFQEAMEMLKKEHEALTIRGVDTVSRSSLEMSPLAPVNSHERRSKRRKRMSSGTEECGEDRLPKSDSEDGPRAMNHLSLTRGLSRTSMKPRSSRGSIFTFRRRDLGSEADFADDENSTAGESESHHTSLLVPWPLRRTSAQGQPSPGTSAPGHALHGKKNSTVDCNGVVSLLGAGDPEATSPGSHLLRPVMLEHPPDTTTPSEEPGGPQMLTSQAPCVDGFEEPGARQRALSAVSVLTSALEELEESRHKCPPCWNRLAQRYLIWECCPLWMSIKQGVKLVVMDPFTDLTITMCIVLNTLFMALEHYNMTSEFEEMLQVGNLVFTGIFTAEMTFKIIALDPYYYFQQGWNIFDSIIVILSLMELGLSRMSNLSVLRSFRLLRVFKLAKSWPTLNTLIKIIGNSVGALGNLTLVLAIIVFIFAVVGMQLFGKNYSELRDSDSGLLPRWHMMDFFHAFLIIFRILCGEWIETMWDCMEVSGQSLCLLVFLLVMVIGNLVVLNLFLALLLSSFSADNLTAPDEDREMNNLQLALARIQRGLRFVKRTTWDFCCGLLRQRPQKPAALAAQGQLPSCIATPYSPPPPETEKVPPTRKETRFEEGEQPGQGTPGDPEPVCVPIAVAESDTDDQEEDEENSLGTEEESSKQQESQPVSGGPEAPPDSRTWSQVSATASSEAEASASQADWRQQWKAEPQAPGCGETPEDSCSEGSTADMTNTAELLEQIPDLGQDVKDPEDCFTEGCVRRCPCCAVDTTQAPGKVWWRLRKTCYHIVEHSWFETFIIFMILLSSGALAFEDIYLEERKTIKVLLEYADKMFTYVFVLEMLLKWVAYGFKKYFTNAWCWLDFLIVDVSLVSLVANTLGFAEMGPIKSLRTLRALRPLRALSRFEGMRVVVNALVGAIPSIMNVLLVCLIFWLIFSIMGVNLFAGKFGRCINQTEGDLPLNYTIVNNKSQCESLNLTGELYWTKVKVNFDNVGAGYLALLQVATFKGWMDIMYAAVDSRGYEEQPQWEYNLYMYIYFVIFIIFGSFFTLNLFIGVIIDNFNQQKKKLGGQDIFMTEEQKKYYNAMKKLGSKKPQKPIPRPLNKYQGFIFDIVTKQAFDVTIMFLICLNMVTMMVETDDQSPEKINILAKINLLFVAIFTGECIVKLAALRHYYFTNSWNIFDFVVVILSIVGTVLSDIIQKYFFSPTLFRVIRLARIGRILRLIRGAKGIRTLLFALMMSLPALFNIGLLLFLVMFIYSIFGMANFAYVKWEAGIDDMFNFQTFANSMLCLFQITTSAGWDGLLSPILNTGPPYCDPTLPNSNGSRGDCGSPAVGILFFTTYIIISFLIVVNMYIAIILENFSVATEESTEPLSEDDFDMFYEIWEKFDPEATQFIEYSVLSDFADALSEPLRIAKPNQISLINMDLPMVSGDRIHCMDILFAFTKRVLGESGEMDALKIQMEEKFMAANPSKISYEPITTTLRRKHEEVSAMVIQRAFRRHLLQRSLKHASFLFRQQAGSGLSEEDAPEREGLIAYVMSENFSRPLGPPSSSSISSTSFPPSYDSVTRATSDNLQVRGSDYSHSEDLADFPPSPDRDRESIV

The first series has as its system HIV. Kind of series: Anti-HIV activity (MT-4 cells, MTT). Format: cell-based. The settings on record: Human immunodeficiency virus 1, MT4, 96 h, read-out: EC50_nM (50% HIV inhibitory concentration). As to the method: Serial dilutions of a test sample were prepared in a 96-well microplate (50 μL/well). 2.5×10^5 cells/mL of an MT-4 cell suspension was dispensed at 100 μL/well to the plate containing the test sample. Then, an HIV virus solution was dispensed at 50 μL/well. The plate was mixed with a plate mixer and cultured for 4 days in a CO2 incubator. An MTT (3-(4,5-dimethylthiazol-2-yl)-2,5-diphenyltetrazolium bromide) solution was dispensed at 30 μL/well. The plate was reacted for 1 hour in a CO2 incubator. 150 μL of the supernatant was removed from each well so as not to take up the cells. 150 μL of a cell lysis solution was added to each well and well mixed with a plate mixer until the cells were completely lysed. The absorbance of the mixed plate was measured at two wavelengths of 560 nm and 690 nm using a microplate reader.
As to `CCN1C(=O)c2c(O)c(=O)c(-c3nnc(Cc4c(F)cc(F)cc4F)s3)cn2N2C[C@@H]3CC[C@@H](C3)[C@@H]12` [II-052], the EC50 stood at 0.66 nM.
Still for that read-out and setting: the same measure for `CC(C)N1C(=O)c2c(O)c(=O)c(-c3nnc(Cc4c(F)cc(F)cc4F)s3)cn2N2C[C@@H]3CC[C@@H](O3)[C@@H]12` [II-054]: 1 nM.
In the case of `CN1C(=O)c2c(O)c(=O)c(-c3nnc(Cc4ccc(F)cc4F)s3)cn2N2C[C@@H]3CC[C@@H](C3)[C@@H]12` [II-055], the EC50 came to 0.14 nM.
On the same count and under the same terms, the same measure for `CCN1C(=O)c2c(O)c(=O)c(-c3nnc(Cc4c(F)cc(F)cc4F)s3)cn2N2CC[C@@H](C)C[C@@H]12` [II-057]: 1.7 nM.
On the same count and under the same terms, under `C[C@@H]1CCN2[C@@H](C1)N(C)C(=O)c1c(O)c(=O)c(-c3nnc(Cc4c(F)cc(F)cc4F)s3)cn12` [II-058] stands 0.69 nM.
The same measure, in the same setting: under `CCN1C(=O)c2c(O)c(=O)c(-c3nnc(Cc4c(F)cc(F)cc4F)s3)cn2N2CC[C@H](C)C[C@@H]12` [II-061] stands 1.8 nM.
Consider `CCN1C(=O)c2c(O)c(=O)c(-c3nnc(Cc4cc(F)c(F)cc4F)s3)cn2N2C[C@@H]3CC[C@@H](C3)[C@@H]12` [II-062], for which the EC50 worked out at 5.2 nM.
On the same count and under the same terms, under `CN1C(=O)c2c(O)c(=O)c(-c3nnc(Cc4c(F)cc(F)cc4F)s3)cn2N2C[C@@H]3CC[C@@H](C3)[C@@H]12` [II-063] stands 0.6 nM.
On the same count and under the same terms, under `CCN1C(=O)c2c(O)c(=O)c(-c3nnc(Cc4ccc(F)cc4F)s3)cn2N2C[C@@H](C)CC[C@@H]12` [II-067] stands 0.3 nM.
In the case of `CCN1C(=O)c2c(O)c(=O)c(-c3nnc(Cc4c(F)cc(F)cc4F)s3)cn2N2C[C@@H](C)CC[C@@H]12` [II-068], the EC50 turned out to be 1.2 nM.
For `CN1C(=O)c2c(O)c(=O)c(-c3nnc(Cc4cccc(Cl)c4F)s3)cn2N2CCOC[C@@H]12` [II-069], the EC50 worked out at 0.24 nM.

In another series the test system is HIV mutant strain 1 (E138K/G140S/Q148H/N155H).
Assay: not given
Format: cell-based. The settings on record: FC=EC50 of the mutant strain/EC50 of the wild strain, HeLa-CD4 cells. As to the method:
(§1) Serial dilutions of a test sample were prepared in a 96-well microplate (50 μL/well). 2.5×10^5 cells/mL of a HeLa-CD4 cell suspension was dispensed at 100 μL/well to the plate containing the test sample. Then, an HIV virus solution (wild strain and mutant strain) was dispensed at 50 μL/well. The plate was mixed with a plate mixer and cultured for 3 days in a CO2 incubator. The culture supernatant in each well was removed by suction. A cell lysis buffer in a reporter assay kit was dispensed at 100 μL/well, and the plate was frozen in a freezer (−80° C.). The plate frozen in a freezer was thawed at room temperature, then mixed with a plate mixer, and centrifuged at 1,200 rpm for 5 minutes. The supernatant of each well was dispensed at 20 μL/well to a 96-well microplate (BLACK). A chemiluminescent in the reporter assay kit reagent was dispensed at 100 μL/well and reacted at room temperature for approximately 1 hour. Then, luminescence intensity was measured using MicroBeta TRILUX.
On to `CCN1C(=O)c2c(O)c(=O)c(-c3nnc(Cc4c(F)cc(F)cc4F)s3)cn2N2C[C@@H]3CC[C@@H](C3)[C@@H]12` [II-052], for which the “FC (fold change) for mutant strain 1” value stood at 2.3.
On the same count and under the same terms, under `CC(C)N1C(=O)c2c(O)c(=O)c(-c3nnc(Cc4c(F)cc(F)cc4F)s3)cn2N2C[C@@H]3CC[C@@H](O3)[C@@H]12` [II-054] stands 3.5; under `CN1C(=O)c2c(O)c(=O)c(-c3nnc(Cc4ccc(F)cc4F)s3)cn2N2C[C@@H]3CC[C@@H](C3)[C@@H]12` [II-055], 15.
In the case of `CCN1C(=O)c2c(O)c(=O)c(-c3nnc(Cc4c(F)cc(F)cc4F)s3)cn2N2CC[C@@H](C)C[C@@H]12` [II-057], the “FC (fold change) for mutant strain 1” value is reported as 3.
For the compound `C[C@@H]1CCN2[C@@H](C1)N(C)C(=O)c1c(O)c(=O)c(-c3nnc(Cc4c(F)cc(F)cc4F)s3)cn12` [II-058], the “FC (fold change) for mutant strain 1” value is 6.1.
With `CCN1C(=O)c2c(O)c(=O)c(-c3nnc(Cc4c(F)cc(F)cc4F)s3)cn2N2CC[C@H](C)C[C@@H]12` [II-061], the “FC (fold change) for mutant strain 1” value was determined as 5.1.
With `CCN1C(=O)c2c(O)c(=O)c(-c3nnc(Cc4cc(F)c(F)cc4F)s3)cn2N2C[C@@H]3CC[C@@H](C3)[C@@H]12` [II-062], the “FC (fold change) for mutant strain 1” value worked out at 8.3.
Turning to `CN1C(=O)c2c(O)c(=O)c(-c3nnc(Cc4c(F)cc(F)cc4F)s3)cn2N2C[C@@H]3CC[C@@H](C3)[C@@H]12` [II-063], the “FC (fold change) for mutant strain 1” value worked out at 14.
Same read-out and setting: the same measure for `CCN1C(=O)c2c(O)c(=O)c(-c3nnc(Cc4ccc(F)cc4F)s3)cn2N2C[C@@H](C)CC[C@@H]12` [II-067]: 5.2.
Same read-out and setting: under `CCN1C(=O)c2c(O)c(=O)c(-c3nnc(Cc4c(F)cc(F)cc4F)s3)cn2N2C[C@@H](C)CC[C@@H]12` [II-068] stands 3.5; under `CN1C(=O)c2c(O)c(=O)c(-c3nnc(Cc4cccc(Cl)c4F)s3)cn2N2CCOC[C@@H]12` [II-069], 30.

The subject of another series is HIV mutant strain 2 (E92Q/E138T/G140S/Q148H).
Assay: not given
The settings on record: FC=EC50 of the mutant strain/EC50 of the wild strain, HeLa-CD4 cells. Format: cell-based. As to the method:
as §1
In the case of `CCN1C(=O)c2c(O)c(=O)c(-c3nnc(Cc4c(F)cc(F)cc4F)s3)cn2N2C[C@@H]3CC[C@@H](C3)[C@@H]12` [II-052], the “FC (fold change) for mutant strain 2” value was found to be 3.5.
For the compound `CC(C)N1C(=O)c2c(O)c(=O)c(-c3nnc(Cc4c(F)cc(F)cc4F)s3)cn2N2C[C@@H]3CC[C@@H](O3)[C@@H]12` [II-054], the “FC (fold change) for mutant strain 2” value was found to be 8.2.
Still for that read-out and setting: the same measure for `CN1C(=O)c2c(O)c(=O)c(-c3nnc(Cc4ccc(F)cc4F)s3)cn2N2C[C@@H]3CC[C@@H](C3)[C@@H]12` [II-055]: 11.
Regarding `CCN1C(=O)c2c(O)c(=O)c(-c3nnc(Cc4c(F)cc(F)cc4F)s3)cn2N2CC[C@@H](C)C[C@@H]12` [II-057], the “FC (fold change) for mutant strain 2” value is given as 3.6.
As for `C[C@@H]1CCN2[C@@H](C1)N(C)C(=O)c1c(O)c(=O)c(-c3nnc(Cc4c(F)cc(F)cc4F)s3)cn12` [II-058], the “FC (fold change) for mutant strain 2” value is on record as 6.1.
For `CCN1C(=O)c2c(O)c(=O)c(-c3nnc(Cc4c(F)cc(F)cc4F)s3)cn2N2CC[C@H](C)C[C@@H]12` [II-061], the “FC (fold change) for mutant strain 2” value is listed as 7.3.
Still for that read-out and setting: the same measure for `CCN1C(=O)c2c(O)c(=O)c(-c3nnc(Cc4cc(F)c(F)cc4F)s3)cn2N2C[C@@H]3CC[C@@H](C3)[C@@H]12` [II-062]: 6.6; for `CN1C(=O)c2c(O)c(=O)c(-c3nnc(Cc4c(F)cc(F)cc4F)s3)cn2N2C[C@@H]3CC[C@@H](C3)[C@@H]12` [II-063]: 12; for `CCN1C(=O)c2c(O)c(=O)c(-c3nnc(Cc4ccc(F)cc4F)s3)cn2N2C[C@@H](C)CC[C@@H]12` [II-067]: 5.1.
On the same count and under the same terms, under `CCN1C(=O)c2c(O)c(=O)c(-c3nnc(Cc4c(F)cc(F)cc4F)s3)cn2N2C[C@@H](C)CC[C@@H]12` [II-068] stands 4.6; under `CN1C(=O)c2c(O)c(=O)c(-c3nnc(Cc4cccc(Cl)c4F)s3)cn2N2CCOC[C@@H]12` [II-069], 25.

Test system in another series: not given
Assay: not given
Particulars: human, 30 min, 0.5 μmol/L, pH 7.4. It is filed as in vitro ADME. As to the method:
Using commercially available pooled human liver microsomes, a compound of the present invention was reacted for a constant time, and a remaining rate was calculated by comparing a reacted sample and an unreacted sample, thereby, a degree at which the compound of the present invention was metabolized in liver was assessed.
A reaction was performed (oxidative reaction) at 37° C. for 0 minute or 30 minutes in the presence of 1 mmol/L NADPH in 0.2 mL of a buffer solution (50 mmol/L Tris-HCl pH 7.4, 150 mmol/L potassium chloride, 10 mmol/L magnesium chloride) containing 0.5 mg protein/mL of human liver microsomes. After the reaction, 50 μL of the reaction solution was added to 100 μL of a solution of methanol/acetonitrile=1/1 (v/v), and the mixture was mixed and centrifuged at 3000 rpm for 15 minutes. The compound of the present invention in the centrifugation supernatant was quantified by LC/MS/MS or solid-phase extraction (SPE)/MS. The amount of the compound of the present invention remaining after the reaction was calculated with the amount of the compound at 0 minutes of the reaction defined as 100%.
`CCN1C(=O)c2c(O)c(=O)c(-c3nnc(Cc4c(F)cc(F)cc4F)s3)cn2N2C[C@@H]3CC[C@@H](C3)[C@@H]12` [II-052] came in with a residual rate of 83.4.
The same measure, in the same setting: under `CC(C)N1C(=O)c2c(O)c(=O)c(-c3nnc(Cc4c(F)cc(F)cc4F)s3)cn2N2C[C@@H]3CC[C@@H](O3)[C@@H]12` [II-054] stands 98.8.
On the same count and under the same terms, under `CN1C(=O)c2c(O)c(=O)c(-c3nnc(Cc4ccc(F)cc4F)s3)cn2N2C[C@@H]3CC[C@@H](C3)[C@@H]12` [II-055] stands 93.9; under `CCN1C(=O)c2c(O)c(=O)c(-c3nnc(Cc4c(F)cc(F)cc4F)s3)cn2N2CC[C@@H](C)C[C@@H]12` [II-057], 82.5.
On the same count and under the same terms, under `C[C@@H]1CCN2[C@@H](C1)N(C)C(=O)c1c(O)c(=O)c(-c3nnc(Cc4c(F)cc(F)cc4F)s3)cn12` [II-058] stands 94.2.
`CCN1C(=O)c2c(O)c(=O)c(-c3nnc(Cc4c(F)cc(F)cc4F)s3)cn2N2CC[C@H](C)C[C@@H]12` [II-061] had a residual rate of 91.5.
The same measure, in the same setting: under `CCN1C(=O)c2c(O)c(=O)c(-c3nnc(Cc4cc(F)c(F)cc4F)s3)cn2N2C[C@@H]3CC[C@@H](C3)[C@@H]12` [II-062] stands 71.7; under `CN1C(=O)c2c(O)c(=O)c(-c3nnc(Cc4c(F)cc(F)cc4F)s3)cn2N2C[C@@H]3CC[C@@H](C3)[C@@H]12` [II-063], 96.5.
`CCN1C(=O)c2c(O)c(=O)c(-c3nnc(Cc4ccc(F)cc4F)s3)cn2N2C[C@@H](C)CC[C@@H]12` [II-067] showed a residual rate of 93.
On the same count and under the same terms, under `CCN1C(=O)c2c(O)c(=O)c(-c3nnc(Cc4c(F)cc(F)cc4F)s3)cn2N2C[C@@H](C)CC[C@@H]12` [II-068] stands 91.3; under `CN1C(=O)c2c(O)c(=O)c(-c3nnc(Cc4cccc(Cl)c4F)s3)cn2N2CCOC[C@@H]12` [II-069], 102.

Another series has as its target T1, Voltage gated sodium channel (Nav1.5 channel) encoded by SCN5A gene (Homo sapiens, UniProt Q14524).
T1 construct: expressed in transfected cells; host or cells: HEK cells
Put plainly: Nav test (QPatch whole cell patch clamp). Format: cell-based. The settings on record: HEK cells expressing Nav1.5, applied 5 minutes or more, room temperature. As to the method: A cell was retained at a membrane potential of −100 mV by whole cell patch clamp method using a fully automated patch clamp system (QPatch; Sophion Bioscience A/S), and INa induced by depolarization pulse stimulation at −10 mV for 20 ms was recorded. […] The extracellular solution in which the medium and the compound of the present invention had been dissolved at each objective concentration was applied to the cell for 5 minutes or more under conditions of room temperature.
(In general: In patch-clamp work, channel activity is measured electrically.)
As to `CCN1C(=O)c2c(O)c(=O)c(-c3nnc(Cc4ccc(F)cc4F)s3)cn2N2CC[C@@H](C)C[C@@H]12` [II-033], the “ratio of maximum peak current (INa) with compound relative to medium” value worked out at 90.7%.
